# In PMC2752665 (Nature chemical biology, 2009):
# Legend:
# KSHV Pr [1] = target: T1, KSHV Pr (Human herpesvirus 8 type P, UniProt Q2HRB6, S204G); test: Inhibition kinetics; assay type: biochemical, human Kaposi's sarcoma-associated herpesvirus (KSHV)
# [2] = Dynamic light scattering for particle formation; assay type: physicochemical
# KSHV Pr dimer = KSHV Pr dimer (Human herpesvirus 8 type P, UniProt Q2HRB6, S204G); assay type: binding
# wt KSHV Pr = wt KSHV Pr (Human herpesvirus 8 type P, UniProt Q2HRB6, S204G); assay type: binding; conditions: 23 μM 13C-Met wt KSHV Pr, 1 molar equivalence inhibitor (24 μM)
# p53-MDM2 = conditions: cited from earlier work
# KSHV Pr [3] = target: T1, KSHV Pr; assay type: biochemical, human Kaposi's sarcoma-associated herpesvirus (KSHV); conditions: substitution from meta position to para or ortho
# [4] = 1 -10 μM concentration range of DD2
compound,measurement,setting,value
O=C(O)c1ccc(NC(=O)c2cccc(CC3CCCCC3)n2)c(Cc2ccccc2)c1 [Compound 2],decrease in Vmax,KSHV Pr [1]; [4],3 fold
same,increase in KM,KSHV Pr [1]; [4],2.5 fold
same,type of inhibition,KSHV Pr [1]; Lineweaver–Burk analysis,mixed-type inhibitor
same,particle formation by dynamic light scattering,[2],did not show evidence of particle formation
same,elution profile of KSHV Pr (dimerization state),KSHV Pr dimer; 5 μM wt KSHV Pr pre-incubated with 30 μM compound,eluted predominantly as a monomer
same,M197-dimer peak in 1H-13C HSQC,wt KSHV Pr,broadens beyond detection
O=C(O)c1ccc(NC(=O)c2cccc(CC3CCCCC3)c2)c(Cc2ccccc2)c1 [Compound 1],results in size exclusion chromatography and HSQC experiments compared with DD2,KSHV Pr dimer; data not shown,produced similar results
same,inhibition of the interaction of p53-MDM2,p53-MDM2,not found to inhibit
O=C(O)c1ccc(NC(=O)c2ccccc2CC2CCCCC2)c(Cc2ccccc2)c1 [Compound 5],effect of moving the cyclohexylmethyl side chain on inhibition (SAR),KSHV Pr [3],diminished inhibition
O=C(O)c1ccc(NC(=O)c2ccc(CC3CCCCC3)cc2)c(Cc2ccccc2)c1 [Compound 4],effect of moving the cyclohexylmethyl side chain on inhibition (SAR),KSHV Pr [3],diminished inhibition
